Assays:
Experiment in all cases: drug sensitivity score (DSS3, normalised partial AUC of % inhibition dose-response) (DSS (score)); higher = more sensitive (stronger inhibition of viability); extreme values may be limits of the assay
FMOC06 = patient-derived mucinous ovarian cancer cells; conditions: 72 h; library: FO5A; assay format: 2D, 384-well, CellTiter-Glo
In short: (§1)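 The drug sensitivity score is calculated as a partial area under the percent-inhibition dose-response curve, divided by the log of the upper asymptote; higher scores mean more sensitive. For this score, early-passage (under 10) patient-derived ovarian cancer cells were exposed on 384-well flat clear-bottom plates to compounds at five concentrations across a 10,000-fold range for 72 h at 37 °C, 5% CO2. Viability was read with CellTiter-Glo and processed in Breeze.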

FMOC03 = patient-derived mucinous ovarian cancer cells; conditions: 72 h; library: FO5A; assay format: 2D, 384-well, CellTiter-Glo
In short: as §1

FMOC25_2 = patient-derived low-grade serous ovarian cancer cells; conditions: 72 h; library: FO5A; assay format: 2D, 384-well, CellTiter-Glo
In short: as §1

FMOC02_3 = patient-derived low-grade serous ovarian cancer cells; conditions: 72 h; library: FO5A; assay format: 2D, 384-well, CellTiter-Glo
In short: as §1

FMOC24 = patient-derived high-grade serous ovarian cancer cells; conditions: 72 h; library: FO5A; assay format: 2D, 384-well, CellTiter-Glo
In short: as §1

FMOC14 = patient-derived high-grade serous ovarian cancer cells; conditions: 72 h; library: FO5A; assay format: 2D, 384-well, CellTiter-Glo
In short: as §1

FMOC09 = patient-derived high-grade serous ovarian cancer cells; conditions: 72 h; library: FO5A; assay format: 2D, 384-well, CellTiter-Glo
In short: as §1

FMOC02_2 = patient-derived low-grade serous ovarian cancer cells; conditions: 72 h; library: FO5A; assay format: 2D, 384-well, CellTiter-Glo
In short: as §1

FMOC22 = patient-derived mucinous ovarian cancer cells; conditions: 72 h; library: FO5A; assay format: 2D, 384-well, CellTiter-Glo
In short: as §1

FMOC25_1 = patient-derived low-grade serous ovarian cancer cells; conditions: 72 h; library: FO4B; assay format: 2D, 384-well, CellTiter-Glo
In short: as §1

Compound | drug sensitivity score (FMOC06) | drug sensitivity score (FMOC03) | drug sensitivity score (FMOC25_2) | drug sensitivity score (FMOC02_3) | drug sensitivity score (FMOC24) | drug sensitivity score (FMOC14) | drug sensitivity score (FMOC09) | drug sensitivity score (FMOC02_2) | drug sensitivity score (FMOC22) | drug sensitivity score (FMOC25_1)
Cc1nc(=O)c2cc(CN(C)c3ccc(C(=O)N[C@@H](CCC(=O)O)C(=O)O)s3)ccc2[nH]1 [Raltitrexed] | 0 | 1.5 | 1.3 | 0 | 0.05 | 0.3 | 0 | 0 | 3.8 | 0.1
CN(C)Cc1ccc(S(=O)(=O)n2ccc(/C=C/C(=O)NO)c2)cc1 [Resminostat] | 6.8 | 8.1 | 7.7 | 7.4 | 6.3 | 8.2 | 3.3 | 9.7 | 6.8 | 3.4
CO[C@H]1C[C@@H]2CC[C@@H](C)[C@@](O)(O2)C(=O)C(=O)N2CCCC[C@H]2C(=O)O[C@H]([C@H](C)C[C@@H]2CC[C@@H](OP(C)(C)=O)[C@H](OC)C2)CC(=O)[C@H](C)/C=C(\C)[C@@H](O)[C@@H](OC)C(=O)[C@H](C)C[C@H](C)/C=C/C=C/C=C/1C [Ridaforolimus] | 5.7 | 4.5 | 11.8 | 13.8 | 0 | 3.4 | 4.2 | 11.1 | 9.3 | 10.3
COc1cc(OC)c(/C=C/S(=O)(=O)Cc2ccc(OC)c(NCC(=O)O)c2)c(OC)c1 [Rigosertib] | 14.3 | 18.2 | 12 | 20.5 | 6.5 | 0.1 | 15.4 | 16.4 | 16.1 | 14.3
C=CC(=O)Nc1cccc(Nc2nc(Nc3ccc(N4CCN(C(C)=O)CC4)cc3OC)ncc2C(F)(F)F)c1 [Rociletinib] | 6.7 | 8.7 | 9.4 | 11.7 | 2.45 | 5.2 | 8.4 | 12.4 | 5.2 | 9.2
C/C=C1\NC(=O)[C@H]2CSSCC/C=C/[C@H](CC(=O)N[C@H](C(C)C)C(=O)N2)OC(=O)[C@H](C(C)C)NC1=O [Romidepsin] | 27.6 | 28.3 | 28.9 | 32.6 | 32.9 | 28.7 | 17.6 | 26.3 | 26.3 | 30.1
CN(C)C[C@@H]1CCn2cc(c3ccccc32)C2=C(C(=O)NC2=O)c2cn(c3ccccc23)CCO1 [Ruboxistaurin] | 8.7 | 3 | 9.3 | 12.8 | 6.45 | 6.8 | 7.5 | 9.7 | 3.2 | 5.4
CN1CCC(CNc2ccc3ncc(-c4cccc(OC(F)(F)F)c4)n3n2)CC1 [SGI-1776] | 6.5 | 6.1 | 7.4 | 8.8 | 8.05 | 5 | 4.5 | 9.2 | 5.9 | 7.4
CN(CC(=O)N(Cc1ccc(C2CCCCC2)cc1)c1ccc(C(=O)O)cc1)S(=O)(=O)c1c(F)c(F)c(F)c(F)c1F [SH-4-54] | 9 | 6.2 | 5.5 | 8.8 | 6.2 | 5.9 | 10.3 | 9.3 | 5.3 | 6.9
CCc1c2c(nc3ccc(O)cc13)-c1cc3c(c(=O)n1C2)COC(=O)[C@]3(O)CC [SN-38] | 21.8 | 20.2 | 29.1 | 32.5 | 24.8 | 20.4 | 15.1 | 21.3 | 31 | 24.4
CC(C)(C)c1cnc(CSc2cnc(NC(=O)C3CCNCC3)s2)o1 [SNS-032] | 23.2 | 17.4 | 25.4 | 25.5 | 17.9 | 17.9 | 11.6 | 19.4 | 12 | 20.8
Cc1cc2c(C(=O)NC[C@H](C)c3ccccc3)c(O)c(O)cc2c(O)c1-c1c(C)cc2c(C(=O)NC[C@H](C)c3ccccc3)c(O)c(O)cc2c1O [Sabutoclax] | 5.6 | 9.6 | 5.3 | 9.1 | 6.6 | 12.6 | 9.3 | 5.2 | 10.8 | 6.2
CNC(=O)CN1CCC(Oc2cc3c(Nc4cccc(Cl)c4F)ncnc3cc2OC)CC1 [Sapitinib] | 0.3 | 14.7 | 10 | 13.8 | 0.2 | 4.2 | 10.4 | 14 | 0.9 | 9.4
CN1CCN(CCOc2cc(OC3CCOCC3)c3c(Nc4c(Cl)ccc5c4OCO5)ncnc3c2)CC1 [Saracatinib] | 4.6 | 9.4 | 10 | 16.7 | 4.7 | 5 | 11 | 15.6 | 0.6 | 5.3
O=C(/C=C\n1cnc(-c2cc(C(F)(F)F)cc(C(F)(F)F)c2)n1)NNc1cnccn1 [Selinexor] | 21.6 | 12.3 | 21.4 | 18.2 | 21.5 | 10.7 | 12.8 | 15.8 | 18.9 | 15.1
Cn1cnc2c(F)c(Nc3ccc(Br)cc3Cl)c(C(=O)NOCCO)cc21 [Selumetinib] | 14.6 | 11.4 | 8.1 | 13.7 | 0.4 | 1.3 | 10.6 | 12.9 | 7.2 | 7.3
